Key:
[1] = molecular target: T1, GroEL/ES (Escherichia coli, UniProt P0A6F5); assay: GroEL/ES-mediated dMDH refolding assay; format: biochemical, E. coli; details: Table 3; 37° C., 1 mM ATP; read-out: Biochemical Assay IC50 GroEL/ES-dMDH Refolding
T1 construct: made in house; host or cells: GroEL in E. coli DH5a; GroES in E. coli BL21 (DE3)
Experimental: (§1) Evaluation of compounds ability to inhibit GroEL/ES and HSP60/10-mediated dMDH refolding assays.
(§2) Reagent preparation: For these assays, four primary reagent stocks were prepared: 1) GroEL/ES-dMDH or HSP60/10-dMDH binary complex stock; 2) ATP initiation stock; 3) EDTA quench stock; 4) MDH enzymatic assay stock. Denatured MDH (dMDH) was prepared by 2-fold dilution of MDH (5 mg/ml, soluble pig heart MDH from Roche, product #10127248001) with denaturant buffer (7 M guanidine-HCl, 200 mM Tris, pH 7.4, and 50 mM DTT). MDH was completely denatured by incubating at room temperature for 45 min. The binary complex solutions were prepared by slowly adding the dMDH stock to a stirring stock with GroEL (or HSP60) in folding buffer (50 mM Tris-HCl, pH 7.4, 50 mM KCl, 10 mM MglC2, and 1 mM DTT), followed by addition of GroES (or HSP10). The binary complex stocks were prepared immediately prior to dispensing into the assay plates and had final protein concentrations of 83.3 nM GroEL (Mr 800 kDa) or HSP60 (Mr 400 kDa), 100 nM GroES or HSP10 (Mr 70 kDa), and 20 nM dMDH in folding buffer. For the ATP initiation stock, ATP solid was diluted into folding buffer to a final concentration of 2.5 mM. Quench solution contained 600 mM EDTA (pH 8.0). The MDH enzymatic assay stock consisted of 20 mM sodium mesoxalate and 2.4 mM NADH in reaction buffer (50 mM Tris-HCl, pH 7.4, 50 mM KC1, and 1 mM DTT).
(§3) Assay Protocol: First, 30 μL aliquots of the GroEL/ES-dMDH or HSP60/10-dMDH binary complex stocks were dispensed into clear, 384-well polystyrene plates. Next, 0.5 μL of the compound stocks (10 mM to 4.6 μM, 3-fold dilutions series in DMSO) were added by pin-transfer (V&P Scientific). The chaperonin-mediated refolding cycles were initiated by addition of 20 IA of ATP stock (reagent concentrations during refolding cycle: 50 nM GroEL or HSP60, 60 nM GroES or HSP10, 12 nM dMDH, 1 mM ATP, and compounds of 100 μM to 46 nM, 3-fold dilution series). The refolding reactions were incubated at 37° C. The incubation time was determined from refolding time-course control experiments until they reached ˜90% completion of refolding cycle — generally ˜20-40 min for GroEL/ES, and ˜40-60 min for HSP60/10). Next, the assay was quenched by addition of 10 μL of the EDTA to final concentration of 100 mM. […] A340 nm measurements were recorded at 0.5 minutes (start point) and at successive time points until the amount of NADH consumed reached ˜90% (end point, generally between 20-35 minutes). The differences between the start and end point A340 values were used to calculate the % inhibition of the GroEL/ES or HSP60/10 machinery by the compounds. IC50 values for the test compounds were obtained by plotting the % inhibition results in GraphPad Prism 6 and analyzing by non-linear regression using the log (inhibitor) vs. response (variable slope) equation. Results presented represent the averages of IC50 values obtained from at least quadriplicate (duplicate of duplicate) replicates. For results, see Tables 1, 2, and 3.

[2] = molecular target: T2, HSP60/10 (Homo sapiens, UniProt P10809); assay: HSP60/10-mediated dMDH refolding assay; format: biochemical; details: Table 3; 37° C., 1 mM ATP; read-out: Biochemical Assay IC50 HSP60/10-dMDH Refolding
T2 construct: octa-Histidine (His8) tag, TEV-cleavable (N, cleaved yes); made in house; host or cells: HSP60 in Rosetta 2 (DE3) E. coli; HSP10 in Rosetta 2 (DE3) pLysS
Experimental: as §1, §2, §3

[3] = tested on: S. aureus; assay: S. aureus bacterial proliferation assay; format: cell-based; details: Staphylococcus aureus; Table 3; cation adjusted BHI media, OD600 at 6-8 h; read-out: S. aureus Proliferation EC50
Experimental: Evaluation of compounds for inhibition of bacterial cell proliferation.
Growth Media: S. aureus bacteria were grown in Brain Heart Infusion (BHI) broth/agar (Becton, Dickinson and Company). All liquid cultures were grown in BHI media supplemented with 25 mg/L Ca^2+ and 12.5 mg/L Mg^2+ to mimic free physiological concentrations of these cations. A 10 mg/mL Ca^2+ stock solution was prepared by dissolving 3.68 g of CaCl2·2H^2O in 100 mL of deionized water, and a 10 mg/mL Mg^2+ stock solution was prepared by dissolving 8.36 g of […] in 100 mL deionized water. Both stock solutions were filter-sterilized using 0.2 μm pore size cellulose-acetate filters. 2.5 mL of the sterile 10 mg/mL Ca^2+ stock and 1.25 mL of the sterile 10 mg/mL Mg^2+ stock solutions were added per 1 L of autoclaved BHI medium to obtain 25 mg/L Ca^2+ and 12.5 mg/L Mg^2+ ions, respectively.
General Assay Protocol: Stock bacterial cultures were streaked onto BHI agar plates and grown overnight at 37° C. Fresh aliquots of broth were inoculated with single bacterial colonies and the cultures were grown overnight at 37° C. with shaking (240 rpm) in cation adjusted BHI media. The following morning, the overnight cultures were sub-cultured (1:5 dilution) into fresh aliquots of cation adjusted BHI media and grown at 37° C. for 1-2 hours with shaking. After 2 h, cultures were diluted into fresh media to achieve final OD600 readings of 0.017. Aliquots of these diluted cultures (30 μL) were added to clear, flat-bottom, 384-well polystyrene plates that were stamped with 0.5 μL of test compounds in 20 μL media. Compounds were evaluated in dose-response format where the inhibitor concentration range during the proliferation assay was 100 μM to 46 nM (3-fold dilution series). Plates were sealed with “Breathe Easy” oxygen permeable membranes (Diversified Biotech) and left to incubate at 37° C. without shaking (stagnant assay). OD600 nm readings were taken generally at 6-8 h, when bacteria had reached log-phase growth. A second set of baseline control plates were prepared analogously, but without any bacteria added, to correct for possible compound absorbance and/or precipitation. Plates were then read at 600 nm using a Molecular Devices SpectraMax Plus384 microplate reader. EC50 values for the test compounds were obtained by plotting the OD600 results in GraphPad Prism and analyzing by non-linear regression using the log(inhibitor) vs. response (variable slope) equation. For results, see Tables 1, 2, and 3.

[4] = HEK 293 kidney cell viability / cytotoxicity assay (Alamar Blue); format: cell-based; details: human, HEK 293 kidney cells; Table 3; 48 h incubation, Alamar Blue; read-out: HEK 293 Kidney Cell Viability CC50
Experimental: Evaluating compound effects on kidney cell viability.
HEK 293 cells were maintained in MEM medium (Corning Cellgro, 10-009 CV) supplemented with 10% FBS (Sigma, F2242). […] Cells at 80% confluence were harvested and diluted in growth medium, then 45 μL of the HEK 293 cells (1,500 cells/well) were dispensed per well, and plates were sealed with “Breathe Easy” oxygen permeable membranes (Diversified Biotech) and incubated at 37° C., 5% CO2, for 24 h. […] Plates were sealed with “Breathe Easy” oxygen permeable membranes and incubated for an additional 48 h at 37° C. and 5% CO2. The Alamar Blue reporter reagents were then added to a final concentration of 10%, the plates incubated at 37° C. and 5% CO2, and sample fluorescence (535 nm excitation, 590 nm emission) was read using a Molecular Devices FlexStation II 384-well plate reader (readings taken between 4-24 h of incubation so as to achieve signals in the 30-60% range for conversion of resazurin to resorufin). Cell viability was calculated as per vendor instructions (Thermo Fisher—Alamar Blue cell viability assay manual).

T2 sequence (P10809 27-573): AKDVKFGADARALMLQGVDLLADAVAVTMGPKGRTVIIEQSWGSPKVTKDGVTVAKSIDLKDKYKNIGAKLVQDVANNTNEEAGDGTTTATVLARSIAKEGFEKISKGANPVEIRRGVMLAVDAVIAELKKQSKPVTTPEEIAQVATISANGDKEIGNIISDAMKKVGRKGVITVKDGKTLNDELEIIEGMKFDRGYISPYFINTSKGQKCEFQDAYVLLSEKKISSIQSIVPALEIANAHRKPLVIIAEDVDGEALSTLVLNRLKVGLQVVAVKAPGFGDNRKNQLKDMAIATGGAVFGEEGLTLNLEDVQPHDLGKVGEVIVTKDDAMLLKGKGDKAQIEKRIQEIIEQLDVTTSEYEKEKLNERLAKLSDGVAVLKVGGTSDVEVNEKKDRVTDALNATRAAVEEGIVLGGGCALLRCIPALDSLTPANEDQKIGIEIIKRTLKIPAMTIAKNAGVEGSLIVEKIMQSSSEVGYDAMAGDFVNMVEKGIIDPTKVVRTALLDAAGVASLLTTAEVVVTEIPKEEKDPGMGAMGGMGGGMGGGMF
T1 sequence (P0A6F5 2-548): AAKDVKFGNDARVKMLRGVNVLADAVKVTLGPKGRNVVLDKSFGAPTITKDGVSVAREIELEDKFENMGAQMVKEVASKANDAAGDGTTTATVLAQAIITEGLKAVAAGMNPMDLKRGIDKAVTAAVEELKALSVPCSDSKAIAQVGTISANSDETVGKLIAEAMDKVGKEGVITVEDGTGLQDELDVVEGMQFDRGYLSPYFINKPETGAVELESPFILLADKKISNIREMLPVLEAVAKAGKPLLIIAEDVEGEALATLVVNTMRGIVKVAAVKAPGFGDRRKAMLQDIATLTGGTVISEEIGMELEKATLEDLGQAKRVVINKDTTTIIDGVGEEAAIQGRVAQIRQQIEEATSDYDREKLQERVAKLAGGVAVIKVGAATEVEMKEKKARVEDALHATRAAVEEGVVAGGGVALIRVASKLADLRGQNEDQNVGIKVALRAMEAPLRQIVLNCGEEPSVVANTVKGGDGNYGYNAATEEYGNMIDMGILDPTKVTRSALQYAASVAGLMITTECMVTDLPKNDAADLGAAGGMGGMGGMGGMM

O=C(O)c1ccc(NC(=O)c2cc(Cl)ccc2O)cc1 [Compound 109, 4-(5-chloro-2-hydroxybenzamido)benzoic acid]
> 100 µM: IC50 [1] | IC50 [2] | EC50 [3] | CC50 at 48 h [4]

From US20230406831A1, “COMPOUNDS AND METHODS OF INHIBITING BACTERIAL CHAPERONIN SYSTEMS” (THE TRUSTEES OF INDIANA UNIVERSITY, priority 2020, published 2023)
